Results: patent publication US10150755B2, “ASK1 inhibitor compounds and uses thereof” (Seal Rock Therapeutics, Inc., priority 2017, dated 2018)

Tests used:
[1] = biological target: ASK1 (Homo sapiens (Human), UniProt Q99683); assay: ASK1 Kinase Assay (Promega ASK1 Kinase Enzyme System, ADP-Glo); format: biochemical; conditions: enzyme 50 nM, ATP 10 μM
Procedure: The ASK1 enzymatic assay was run following Promega ASK1 Kinase Enzyme System (Cat #V3881). The kit provides the protocol, enzymes and all reagents necessary to run an assay. Firstly, the compounds, enzyme, substrate and ATP were diluted in provided assay buffer. The final concentration of the enzyme was 50 nM, substrate (Myelin basic protein) 1 μg/ml and ATP 10 μM. The compound and the enzyme were pre-incubated in a 384 well white solid bottom plate (Greiner, Cat#784075) for 10 minutes. After incubation, the substrate and ATP were added and incubated for further 60 minutes. After 60 minutes, ADP-Glo™ was added and plate was incubated for another 40 minutes. After 40 minutes, Kinase Detection Reagent was added and the plate was incubated for 45 minutes. After 45 minutes, plate was read on Perkin Elmer EnVision using luminescence read (0.5 seconds/well).

[2] = tested on: LPS-induced TNFalpha in Human PBMCs; assay: Inhibition of LPS-induced TNFalpha in Human PBMCs; format: cell-based; conditions: PBMC, 100 ng/ml LPS, 6 hr, read-out: TNFa Inhibition IC50
Procedure: Cryopreserved human PBMCs were obtained from AllCells (cat# PB003F). After thawing/dilution protocols using RPMI medium supplemented with 5% FBS (heat inactivated), 100 ul/well of 1×10^6 cells/ml were plated into 96 well tissue culture plates (Corning). Cells were then pre-incubated for 1 hr at 37° C. in humidified 5% CO2 and 95% air with test compounds diluted in DMSO (final DMSO concentration 0.3%). Each compound was tested at 10 concentrations in duplicate wells. After the pre-incubation, 100 ng/ml LPS (E. Coli; Sigma) in RPMI media with 5% FBS was added for a 6 hr incubation at 37° C. in humidified 5% CO2 and 95% air. Controls on each plate included cells and LPS only, cells and media only (no LPS), and media only. After the 6 hr incubation, plates were centrifuged and the supernatants transferred to a new plate and frozen for subsequent TNFalpha analysis. Human TNFalpha was analyzed by ELISA according to the manufacturer's instructions (BD Sciences, BD OptEIA™ Cat#550610) and analyzed on a SpectraMax M series (Molecular Devices) microplate reader at OD 450 nm. IC50s were calculated using XLFit4 curve fitting software (IDBS) and a 4-parameter one-site sigmoid dose response fit.

Sequence of ASK1 (Q99683 649-946 limits assumed): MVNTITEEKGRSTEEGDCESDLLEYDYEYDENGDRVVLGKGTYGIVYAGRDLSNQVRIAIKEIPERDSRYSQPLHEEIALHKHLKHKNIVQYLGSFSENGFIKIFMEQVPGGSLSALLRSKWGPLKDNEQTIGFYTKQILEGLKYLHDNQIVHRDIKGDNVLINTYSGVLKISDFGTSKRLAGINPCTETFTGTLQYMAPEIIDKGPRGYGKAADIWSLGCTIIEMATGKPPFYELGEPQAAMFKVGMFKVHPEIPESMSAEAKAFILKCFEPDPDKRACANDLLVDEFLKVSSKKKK

Compound | IC50 [1] [µM] | IC50 [2] [µM]
CN(C)C(=O)c1ccc2c(c1)CN(c1cccc(-c3nncn3C3CC3)n1)C2=O [Compound 2, 2-(6-(4-Cyclopropyl-4H-1,2,4-triazol-3-yl)pyridin-2-yl)-N,N-dimethyl-1-oxoisoindoline-5-carboxamide] | < 0.2 | 2 to 10
O=C(c1ccc2c(c1)CN(c1cccc(-c3nncn3C3CC3)n1)C2=O)N1CCOCC1 [Compound 7, 2-(6-(4-cyclopropyl-4H-1,2,4-triazol-3-yl)pyridin-2-yl)-5-(morpholine-4-carbonyl)isoindolin-1-one] | < 0.2 | > 0.01
CN1CCN(C(=O)c2ccc3c(c2)CN(c2cccc(-c4nncn4C4CC4)n2)C3=O)CC1 [Compound 10, 2-(6-(4-cyclopropyl-4H-1,2,4-triazol-3-yl)pyridin-2-yl)-5-(4-methylpiperazine-1-carbonyl)isoindolin-1-one] | < 0.2 | 2 to 10
O=C(c1ccc2c(c1)CN(c1cccc(-c3nncn3C3CC3)n1)C2=O)N1CCCCC1 [Compound 11, 2-(6-(4-cyclopropyl-4H-1,2,4-triazol-3-yl)pyridin-2-yl)-5-(piperidine-1-carbonyl)isoindolin-1-one] | < 0.2 | 2 to 10
O=C(c1ccc2c(c1)CN(c1cccc(-c3nncn3C3CC3)n1)C2=O)N1CCC(O)CC1 [Compound 12, 2-(6-(4-cyclopropyl-4H-1,2,4-triazol-3-yl)pyridin-2-yl)-5-(4-hydroxypiperidine-1-carbonyl)isoindolin-1-one] | < 0.2 | > 0.01
O=C1c2cc(-c3cccnc3)ccc2CN1c1cccc(-c2nncn2C2CC2)n1 [Compound 40, 2-(6-(4-cyclopropyl-4H-1,2,4-triazol-3-yl)pyridin-2-yl)-6-(pyridin-3-yl)isoindolin-1-one] | – | < 2
Cc1ccncc1-c1ccc2c(c1)C(=O)N(c1cccc(-c3nncn3C3CC3)n1)C2 [Compound 41, 2-(6-(4-cyclopropyl-4H-1,2,4-triazol-3-yl)pyridin-2-yl)-6-(4-methylpyridin-3-yl)isoindolin-1-one] | – | < 2
O=C1c2cc(-c3ccc(C4CC4)nc3)ccc2CN1c1cccc(-c2nncn2C2CC2)n1 [Compound 46, 2-(6-(4-cyclopropyl-4H-1,2,4-triazol-3-yl)pyridin-2-yl)-6-(6-cyclopropylpyridin-3-yl)isoindolin-1-one] | – | < 2
O=C1c2cc(-c3cnc(C4CC4)cn3)ccc2CN1c1cccc(-c2nncn2C2CC2)n1 [Compound 60, 2-(6-(4-cyclopropyl-4H-1,2,4-triazol-3-yl)pyridin-2-yl)-6-(5-cyclopropylpyrazin-2-yll)isoindolin-1-one] | – | > 0.01
COc1cc2c(cc1-c1cccnc1)C(=O)N(c1cccc(-c3nncn3C3CC3)n1)C2 [Compound 66, 2-(6-(4-cyclopropyl-4H-1,2,4-triazol-3-yl)pyridin-2-yl)-5-methoxy-6-(pyridin-3-yl)isoindolin-1-one] | – | < 2

The next lines start with results.

IC50 [1] [µM] | Compound | IC50 [2] [µM]
< 0.2 | CC1(O)CCN(C(=O)c2ccc3c(c2)CN(c2cccc(-c4nncn4C4CC4)n2)C3=O)CC1 [Compound 13, 2-(6-(4-cyclopropyl-4H-1,2,4-triazol-3-yl)pyridin-2-yl)-5-(4-hydroxy-4-methylpiperidine-1-carbonyl)isoindolin-1-one] | > 0.01
< 0.2 | COC1CCN(C(=O)c2ccc3c(c2)CN(c2cccc(-c4nncn4C4CC4)n2)C3=O)CC1 [Compound 14, 2-(6-(4-cyclopropyl-4H-1,2,4-triazol-3-yl)pyridin-2-yl)-5-(4-methoxypiperidine-1-carbonyl)isoindolin-1-one] | 2 to 10
< 0.2 | CN(C)C1CCN(C(=O)c2ccc3c(c2)CN(c2cccc(-c4nncn4C4CC4)n2)C3=O)CC1 [Compound 15, 2-(6-(4-cyclopropyl-4H-1,2,4-triazol-3-yl)pyridin-2-yl)-5-(4-(dimethylamino)piperidine-1-carbonyl)isoindolin-1-one] | 2 to 10
< 0.2 | CC(=O)N1CCN(C(=O)c2ccc3c(c2)CN(c2cccc(-c4nncn4C4CC4)n2)C3=O)CC1 [Compound 16, 5-(4-acetylpiperazine-1-carbonyl)-2-(6-(4-cyclopropyl-4H-1,2,4-triazol-3-yl)pyridin-2-yl)isoindolin-1-one] | > 0.01
< 0.2 | CC(=O)NC1CCN(C(=O)c2ccc3c(c2)CN(c2cccc(-c4nncn4C4CC4)n2)C3=O)CC1 [Compound 17, N-(1-(2-(6-(4-cyclopropyl-4H-1,2,4-triazol-3-yl)pyridin-2-yl)-1-oxoisoindoline-5-carbonyl)piperidin-4-yl)acetamide] | > 0.01
< 0.2 | O=C1c2cc(-c3cncnc3)ccc2CN1c1cccc(-c2nncn2C2CC2)n1 [Compound 43, 2-(6-(4-cyclopropyl-4H-1,2,4-triazol-3-yl)pyridin-2-yl)-6-(pyrimidin-5-yl)isooindolin-1-one] | 2 to 10
< 0.2 | Cc1ncc(-c2ccc3c(c2)C(=O)N(c2cccc(-c4nncn4C4CC4)n2)C3)cn1 [Compound 44, 2-(6-(4-cyclopropyl-4H-1,2,4-triazol-3-yl)pyridin-2-yl)-6-(2-methylpyrimidin-5-yl)isoindolin-1-one] | 2 to 10
< 0.2 | CC(C)Oc1cc2c(cc1-c1cccnc1)C(=O)N(c1cccc(-c3nncn3C3CC3)n1)C2 [Compound 68, 2-(6-(4-cyclopropyl-4H-1,2,4-triazol-3-yl)pyridin-2-yl)-5-isopropoxy-6-(pyridin-3-yl)isoindolin-1-one] | < 2
< 0.2 | O=C1c2cc(-c3cccnc3)c(OC3CCCC3)cc2CN1c1cccc(-c2nncn2C2CC2)n1 [Compound 69, 5-(Cyclopentyloxy)-2-(6-(4-cyclopropyl-4H-1,2,4-triazol-3-yl)pyridin-2-yl)-6-(pyridin-3-yl)isoindolin-1-one] | < 2
< 0.2 | O=C(c1cc2c(cc1-c1cccnc1)C(=O)N(c1cccc(-c3nncn3C3CC3)n1)C2)N1CCCC1 [Compound 71, 2-(6-(4-cyclopropyl-4H-1,2,4-triazol-3-yl)pyridin-2-yl)-6-(pyridin-3-yl)-5-(pyrrolidine-1-carbonyl)isoindolin-1-one] | 2 to 10
